Data set [1] deals with T1, Solute carrier family 22 member 6 (Homo sapiens, UniProt Q4U2R8).
T1 sequence (Q4U2R8 whole entry): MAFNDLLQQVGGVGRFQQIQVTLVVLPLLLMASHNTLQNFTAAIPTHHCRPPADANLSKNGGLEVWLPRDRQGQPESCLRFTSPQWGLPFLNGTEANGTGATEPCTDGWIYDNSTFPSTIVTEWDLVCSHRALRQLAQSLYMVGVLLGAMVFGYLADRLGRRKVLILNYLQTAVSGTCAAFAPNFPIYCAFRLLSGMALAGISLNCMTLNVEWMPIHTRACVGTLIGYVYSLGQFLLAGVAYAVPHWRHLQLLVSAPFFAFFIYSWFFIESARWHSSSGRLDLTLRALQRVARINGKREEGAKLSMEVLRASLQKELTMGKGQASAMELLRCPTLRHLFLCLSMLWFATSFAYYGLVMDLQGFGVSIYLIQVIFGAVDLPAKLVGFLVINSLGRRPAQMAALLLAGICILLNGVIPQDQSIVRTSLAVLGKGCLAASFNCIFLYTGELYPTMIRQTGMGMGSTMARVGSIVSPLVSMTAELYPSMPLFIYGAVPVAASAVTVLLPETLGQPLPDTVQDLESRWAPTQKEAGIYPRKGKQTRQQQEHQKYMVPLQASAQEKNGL
The data set is described as follows: TP_TRANSPORTER: inhibition of PAH uptake (PAH: 2 uM, Indomethacin: 2000 uM) in Xenopus laevis oocytes. Conditions: oocyte. Details: scale not given: the % may be the effect or the level left. Format: functional, cell-based.

The target in data set [2] is T2, Solute carrier family 22 member 6 (SLC22A6) (Homo sapiens, UniProt Q4U2R8).
T2 sequence (Q4U2R8 whole entry): T1 sequence (Q4U2R8 whole entry)
The data set is described as follows: TP_TRANSPORTER: inhibition of PAH uptake (PAH: 2 uM, Furosemide: 2000 uM) in Xenopus laevis oocytes. Type of data set: functional, cell-based, Oocyte. Details: scale not given: the % may be the effect or the level left. Particulars: Xenopus laevis oocytes expressing SLC22A6, probe PAH, read-out: Activity.

For data set [3], the target named is T1, Solute carrier family 22 member 6. The data set is described as follows: TP_TRANSPORTER: inhibition of PAH uptake (PAH: 2 uM, Urate: 2000 uM) in Xenopus laevis oocytes. Format: functional, cell-based. Conditions: oocyte.

Compound `COc1ccc2c(c1)c(CC(=O)O)c(C)n2C(=O)c1ccc(Cl)cc1` [INDOMETHACIN] registered an Activity in data set [1] of less than 0%.

As to `NS(=O)(=O)c1cc(C(=O)O)c(NCc2ccco2)cc1Cl` [FUROSEMIDE], the activity at 2000 µM in data set [2] is less than 0%.

As to `O=c1[nH]c(=O)c2[nH]c(=O)[nH]c2[nH]1` [URIC ACID], in data set [3], the Activity result was “inhibitor [(at a rough estimate) 5 % of control]”.

For the origin of these results see ChEMBL document CHEMBL2074397, “Molecular cloning and functional expression of a multispecific organic anion transporter from human kidney” (Am J Physiol, 1999).
